Assay results taken from patent US7517998B2, “Non nucleoside reverse transcriptase inhibitors” (priority 2004, dated 2009).

Each compound was assayed against T1, K103NNY181C mutant reverse transcriptase (Human immunodeficiency virus type 1 group M subtype B, UniProt P04585, K690N/Y768C) (assay: Reverse transcriptase enzymatic assay (PicoGreen), K103N/Y181C mutant RT). Conditions: IC50 mut (nM), mutant (K103N/Y181C) reverse transcriptase, enzymatic assay of Example 24.
T1 construct: mutations that occur in the reverse transcriptase segment of the pol gene
Assay type: biochemical, HIV-1
Procedure, shortened: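 HIV-1 RT (2.5 nM final) pre-incubated 15 min at room temperature with inhibitor, then reacted 50 min at 37 °C with poly rC 45 nM, dG15 4.5 nM, dGTP 3.6 μM in Tris/HCl pH 7.8, 1% DMSO. Final inhibitor 10 μM to 0.508 nM; EDTA-quenched, PicoGreen fluorescence read at 485/520 nm.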
CC(C)C(=O)Nc1ccc(NC(=O)CSc2nnnn2-c2ccc(C(C)(C)C)cc2Cl)c(Cl)c1 [Compound 7010] showed an IC50 of 83 nM. CC(C)(C)c1ccc(-n2nnnc2SCC(=O)Nc2ccc(NC(=O)Cc3ccccn3)cc2Cl)c(Cl)c1 [Compound 7032] gave an IC50 of 30 nM. For CC(C)(C)c1ccc(-n2nnnc2SCC(=O)Nc2ccc(NC(=O)c3ccc(C(=O)O)cc3)cc2Cl)c(Cl)c1 [Compound 7029], the IC50 was 88 nM. For CC(C)(C)c1ccc(-n2nnnc2SCC(=O)Nc2ccc(NC(=O)Cc3ccccc3[N+](=O)[O-])cc2Cl)c(Cl)c1 [Compound 7019], the IC50 was 25 nM.

Same assay, conditions: IC50 mut, K103N/Y181C mutant reverse transcriptase, enzymatic assay of Example 24
Work on CC(C)(C#Cc1ccc(NC(=O)CSc2nnnn2-c2ccc(C3CC3)cc2Cl)c(Cl)c1)NC(=O)Cn1cncn1 [Compound 4109] yielded an IC50 of 10.8 nM. CN(C)CCNC(=O)COC(C)(C)C#Cc1ccc(NC(=O)CSc2nnnn2-c2ccc(C(C)(C)C)cc2Cl)c(Cl)c1 [Compound 4047] was tested, and the IC50 was 66 nM. Work on Cc1cc(Cl)c(-n2nnnc2SCC(=O)Nc2ccc(C#CC(C)(C)C(=O)O)cc2Cl)cc1C(F)(F)F [Compound 4063] yielded an IC50 of 51.5 nM. CC(C)(O)C#Cc1ccc(NC(=O)CSc2nnnn2-c2cc(Cl)c(C3CC3)cc2Cl)c(Cl)c1 [Compound 4070] was tested, and the IC50 was 82.5 nM. Compound CC(C)(C#Cc1ccc(NC(=O)CSc2nnnn2-c2ccc(C3CC3)cc2Cl)c(Cl)c1)OCCN1CCC1 [Compound 4119] has an IC50 of 121 nM. With CC(C(=O)O)C(=O)NC(C)(C)C#Cc1ccc(NC(=O)CSc2nnnn2-c2ccc(C3CC3)cc2Cl)c(Cl)c1 (stereo not shown) [Compound 4234] the IC50 was 15.5 nM. In the case of CC(C)(C)c1ccc(-n2nnnc2SCC(=O)Nc2ccc(C#CCN3CCCCC3)cc2Cl)c(Cl)c1 [Compound 4014], the IC50 is reported as 88 nM. CC(C)(C#Cc1ccc(NC(=O)CSc2nnnn2-c2cc(Cl)ccc2Cl)c(Cl)c1)C(=O)O [Compound 4162] was tested, and the IC50 was 99 nM. CC(C)(C#Cc1ccc(NC(=O)CSc2nnnn2-c2ccc(C3CC3)cc2Cl)c(Cl)c1)NC(=O)C1(C(=O)O)CC1 [Compound 4233] showed an IC50 of 9.35 nM. Cc1cc(-n2nnnc2SCC(=O)Nc2ccc(C#CC(C)(C)O)cc2Cl)c(Cl)c(C(F)(F)F)c1 [Compound 4031] showed an IC50 of 264 nM. Compound CC(C)(C#Cc1ccc(NC(=O)CSc2nnnn2-c2ccc(C(C)(C)C)cc2Cl)c(Cl)c1)OCC(=O)O [Compound 4020] has an IC50 of 33 nM. CC(C)(N)C#Cc1ccc(NC(=O)CSc2nnnn2-c2cc(C(F)(F)F)cc(C3CC3)c2Cl)c(Cl)c1F [Compound 4237] gave an IC50 of 91.5 nM. CC(C)(C#Cc1ccc(NC(=O)CSc2nnnn2-c2ccc(C3CC3)cc2Cl)c(Cl)c1)NCc1ccccc1O [Compound 4130] was tested, and the IC50 was 43 nM. With CC(C)(C#Cc1ccc(NC(=O)CSc2nnnn2-c2ccc(C3CC3)cc2Cl)c(Cl)c1)NS(C)(=O)=O [Compound 4076] the IC50 was 17.5 nM. Compound CC(C)(C#Cc1ccc(NC(=O)CSc2nnnn2-c2cc(C3CC3)ccc2Cl)c(Cl)c1)NC(=O)CN1CCNCC1 [Compound 4195] has an IC50 of 22.5 nM. CC(C)(C#Cc1ccc(NC(=O)CSc2nnnn2-c2ccc(C(C)(C)C)cc2Cl)c(Cl)c1)OCC(=O)NC1(C(=O)O)CC1 [Compound 4036] gave an IC50 of 36 nM. CC(C)(O)C#Cc1ccc(NC(=O)CSc2nnnn2-c2cc3c(cc2Cl)CCC3)c(Cl)c1 [Compound 4065] was tested, and the IC50 was 13.5 nM. With CC(C)(C#Cc1ccc(NC(=O)CSc2nnnn2-c2ccc(C(C)(C)C)cc2Cl)c(Cl)c1)COC(N)=O [Compound 4033] the IC50 was 36 nM. CC(C)(C#Cc1ccc(NC(=O)CSc2nnnn2-c2cc(C3CC3)ccc2Cl)c(Cl)c1)NC(=O)CN [Compound 4214] showed an IC50 of 19.5 nM. In the case of CC(C)(C#Cc1ccc(NC(=O)CSc2nnnn2-c2cccc(C3CC3)c2Cl)c(Cl)c1)C(=O)O [Compound 4179], the IC50 is reported as 467 nM. CCCC#Cc1ccc(NC(=O)CSc2nnnn2-c2ccc(C(C)(C)C)cc2Cl)c(Cl)c1 [Compound 4009] gave an IC50 of 8.9 nM. With CC(C)(O)C#Cc1ccc(NC(=O)CSc2nnnn2-c2ccc(C(C)(C)C)cc2Cl)c(Cl)c1 [Compound 4005] the IC50 was 20 nM. CC(C)(N)C#Cc1ccc(NC(=O)CSc2nnnn2-c2cc(C(F)(F)F)ccc2Cl)c(Cl)c1F [Compound 4163] was tested, and the IC50 was 83 nM. In the case of CC(C)(C#Cc1ccc(NC(=O)CSc2nnnn2-c2ccc(C3CC3)cc2Cl)c(Cl)c1F)OCCOc1ccncc1 [Compound 4165], the IC50 is reported as 67.5 nM. Work on CC(C)(C)c1ccc(-n2nnnc2SCC(=O)Nc2ccc(C#CC3CC3)cc2Cl)c(Cl)c1 [Compound 4032] yielded an IC50 of 39 nM. Compound CC(C)(C)c1ccc(-n2nnnc2SCC(=O)Nc2ccc(C#CCO)cc2Cl)c(Cl)c1 [Compound 4006] has an IC50 of 11 nM.

Same assay, conditions: IC50 mut, mutant reverse transcriptase, enzymatic assay of Example 24
For CC(C)(C)c1ccc(-n2nnnc2SCC(=O)Nc2ccc(OCC(=O)Nc3cccc(O)c3)cc2Cl)c(Cl)c1 [Compound 5011], the IC50 was 69 nM. For CC(C)(C)c1ccc(-n2nnnc2SCC(=O)Nc2ccc(C(=O)Nc3ccc(C(=O)O)cc3)cc2Cl)c(Cl)c1 [Compound 6014], the IC50 was 34 nM. COC(=O)CN(C)CCOc1ccc(-c2ccc(NC(=O)CSc3nnnn3-c3ccc(C(C)(C)C)cc3Cl)c(Cl)c2)cc1 [Compound 2043] was tested, and the IC50 was 32 nM. O=C(CSc1nnnn1-c1ccc(C2CC2)cc1Cl)Nc1ccc(-c2ccc(OCCN3CCCC3)cc2)cc1Cl [Compound 2046] was tested, and the IC50 was 6.95 nM. In the case of CC(C)(C)c1ccc(-n2nnnc2SCC(=O)Nc2ccc(OCC(=O)NC(CO)C(=O)O)cc2Cl)c(Cl)c1 (stereo not shown) [Compound 5018], the IC50 is reported as 92 nM. For CC(C)(C)c1ccc(-n2nnnc2SCC(=O)Nc2ccc(-c3ccc(/C=C/C(=O)O)cc3)cc2Cl)c(Cl)c1 [Compound 2032], the IC50 was 6.6 nM. CC(C)(C)c1ccc(-n2nnnc2SCC(=O)Nc2ccc(-c3ccc(OCC(=O)O)cc3F)cc2Cl)c(Cl)c1 [Compound 3020] gave an IC50 of 23 nM. With CC(C)(C)c1ccc(-n2nnnc2SCC(=O)Nc2ccc(C(=O)Nc3ccncc3)cc2Cl)c(Cl)c1 [Compound 6029] the IC50 was 22 nM. Cc1ccc(-c2c(OCC(=O)Nc3ccc(C#CC(C)(C)C(=O)O)cc3Cl)n[nH]c2C)c(Cl)c1 [Compound 1015] gave an IC50 of 48 nM. CC(C)(C)c1ccc(-n2nnnc2SCC(=O)Nc2ccc(OCC(=O)NCCc3ccc(O)cc3)cc2Cl)c(Cl)c1 [Compound 5016] gave an IC50 of 116 nM. With C/C(=C\c1ccc(NC(=O)CSc2nnnn2-c2ccc(C3CC3)cc2Cl)c(Cl)c1)C(=O)O [Compound 3041] the IC50 was 94 nM. Work on CC(C)(C#Cc1ccc(NC(=O)CSc2nnc(C(F)(F)F)n2-c2ccc(C3CC3)cc2Cl)c(Cl)c1)C(=O)O [Compound 1017] yielded an IC50 of 72 nM. Cc1nnc(SCC(=O)Nc2ccc(C#CC(C)(C)COC(N)=O)cc2Cl)n1-c1ccc(C2CC2)cc1Cl [Compound 1011] showed an IC50 of 21 nM. CC(C)(C)c1ccc(-n2nnnc2SCC(=O)Nc2ccc(OCC(=O)Nc3ccc(CC(=O)O)cc3)cc2Cl)c(Cl)c1 [Compound 5023] showed an IC50 of 38 nM. Work on CC(C)(C)c1ccc(-n2nnnc2SCC(=O)Nc2ccc(C(=O)Nc3ccc(N4CCOCC4)cc3)cc2Cl)c(Cl)c1 [Compound 6006] yielded an IC50 of 46 nM. Cc1ccc(-c2ncsc2SCC(=O)Nc2ccc(-c3ccc(CC(=O)O)cc3)cc2Cl)c(Cl)c1 [Compound 1002] gave an IC50 of 795 nM. With CC(C)(C)c1ccc(-n2nnnc2SCC(=O)Nc2ccc(OCC(=O)Nc3ccccc3C(=O)O)cc2Cl)c(Cl)c1 [Compound 5010] the IC50 was 402 nM. Work on CC(C)(C)c1ccc(-n2nnnc2SCC(=O)Nc2ccc(-c3ccc(OCC(=O)O)c(Cl)c3)cc2Cl)c(Cl)c1 [Compound 3013] yielded an IC50 of 24 nM. For CC(C)(C)c1ccc(-n2nnnc2SCC(=O)Nc2ccc(C(=O)NC3CCN(Cc4ccccc4)CC3)cc2Cl)c(Cl)c1 [Compound 6009], the IC50 was 73 nM.
